Source: patent publication US12371454B2, “Cyclic peptide compound having Kras inhibitory action” (priority 2019, dated 2025)
Starred links: 1 amine or outer side, 2 acyl side, 3 side chain; linkers in the order of their positions; H or OH if unused. Positions of bridges follow the written chain, without caps; N, C: chain ends. Non-standard residues stand in square brackets, D forms with d. Residues, ends and D or L forms follow the SMILES beside them. *: point of attachment. hPhe(3-Cl-4-CF3) = N[C@@H](CCc1ccc(C(F)(F)F)c(Cl)c1)C(=O)O; hPhe(3-F,4-CF3) = N[C@@H](CCc1ccc(C(F)(F)F)c(F)c1)C(=O)O; X12 = CN([C@@H](Cc1ccc(C(F)(F)F)nc1)C(=O)[*:2])[*:1]; hPhe(4-CF3) = N[C@@H](CCc1ccc(C(F)(F)F)cc1)C(=O)O; NMePhe(3-OMe) = CN[C@@H](Cc1cccc(OC)c1)C(=O)O; NMePhe(4-Cl) = CN[C@@H](Cc1ccc(Cl)cc1)C(=O)O; NMePhe(4-Me) = CN[C@@H](Cc1ccc(C)cc1)C(=O)O; NMePhe(2-Cl) = CN[C@@H](Cc1ccccc1Cl)C(=O)O; NMePhe(3-F) = CN[C@@H](Cc1cccc(F)c1)C(=O)O; hPhe(4-Cl) = N[C@@H](CCc1ccc(Cl)cc1)C(=O)O; NMeAla(cPent) = CN[C@@H](CC1CCCC1)C(=O)O; Phe(3-I) = N[C@@H](Cc1cccc(I)c1)C(=O)O; X26 = O=C([C@@H]1CCC[C@H]1N[*:1])[*:2]; NMeCha = CN[C@@H](CC1CCCCC1)C(=O)O; NMeChg = CN[C@H](C(=O)O)C1CCCCC1; NMeF = CN[C@@H](Cc1ccccc1)C(=O)O; NMeI = CC[C@H](C)[C@H](NC)C(=O)O; NMeT = CN[C@H](C(=O)O)[C@@H](C)O; NMeD = CN[C@@H](CC(=O)O)C(=O)O; NMeL = CN[C@@H](CC(C)C)C(=O)O; NMeNle = CCCC[C@H](NC)C(=O)O; NMeV = CN[C@H](C(=O)O)C(C)C; d(β3hA) = C[C@@H](N)CC(=O)O; NMeA = CN[C@@H](C)C(=O)O; NMeAib = CNC(C)(C)C(=O)O; Nle = CCCC[C@H](N)C(=O)O; Piperidide = C1CCN(*)CC1; dNMeA = CN[C@H](C)C(=O)O; Ac5c = NC1(C(=O)O)CCCC1; Aze = O=C(O)[C@@H]1CCN1; Sar = CNCC(=O)O

biological target: T1, Kras and SOS1 (biotin-tagged human Kras loaded with GDP, His-tagged human SOS1) (Homo sapiens, UniProt P01116, G12D); experiment: Protein-protein interaction inhibition between Kras and SOS1 (KrasGl2D-SOS PPI) using AlphaScreen; format: binding; conditions: AlphaScreen; biotin-tagged human Kras loaded with GDP, His-tagged human SOS1; read-out: KRAS G12D-SOS PPI IC50
T1 construct: made in house; host or cells: E. coli (stated for Kras only)
T1 sequence (P01116 1-188 isoform P01116-2 G12D): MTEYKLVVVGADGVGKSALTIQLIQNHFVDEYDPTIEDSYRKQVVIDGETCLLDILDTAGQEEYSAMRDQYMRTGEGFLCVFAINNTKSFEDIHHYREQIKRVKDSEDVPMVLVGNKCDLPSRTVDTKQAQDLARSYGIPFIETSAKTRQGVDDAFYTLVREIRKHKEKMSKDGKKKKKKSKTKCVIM
Method in brief: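 Energy transfer from nickel-chelate donor beads bound to His-SOS1 to streptavidin acceptor beads bound to biotin-Kras, expressed in E. coli and loaded with GDP after purification, was monitored. Donors were excited at 680 nm; singlet oxygen reaching acceptors gave emission read at 520-620 nm.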

SMILES	IC50
CC[C@H](C)[C@@H]1NC(=O)[C@H](C)N(C)C(=O)C[C@@H](C)NC(=O)[C@H](C(C)C)N(C)C(=O)C2(CCCC2)NC(=O)[C@@H]2CCCN2C(=O)[C@H](CCc2ccc(C(F)(F)F)c(Cl)c2)NC(=O)[C@@H](C)N(C)C(=O)[C@H](CC2CCCCC2)N(C)C(=O)[C@@H]2CCCN2C(=O)CN(C)C1=O [Compound 516] (cyclo([Ac5c][NMeV][d(β3hA)][NMeA]I[Sar]P[NMeCha][dNMeA][hPhe(3-Cl-4-CF3)]P))	62 nM
CC[C@H](C)[C@@H]1NC(=O)[C@H](CC(C)C)N(C)C(=O)C[C@@H](C)NC(=O)[C@H](C(C)C)N(C)C(=O)C2(CCCC2)NC(=O)[C@@H]2CCCN2C(=O)[C@H](CCc2ccc(C(F)(F)F)c(Cl)c2)NC(=O)CN(C)C(=O)[C@H](Cc2cccc(F)c2)N(C)C(=O)CN(C)C(=O)CN(C)C1=O [Compound 1556] (cyclo([Ac5c][NMeV][d(β3hA)][NMeL]I[Sar][Sar][NMePhe(3-F)][Sar][hPhe(3-Cl-4-CF3)]P))	17 nM
CCCC[C@@H]1NC(=O)[C@H](Cc2cccc(I)c2)NC(=O)CN(C)C(=O)[C@H](CC2CCCC2)N(C)C(=O)[C@@H]2CCN2C(=O)[C@H](C)N(C)C(=O)[C@H]([C@@H](C)CC)NC(=O)[C@H](CC(C)C)N(C)C(=O)C[C@@H](C(=O)N2CCCCC2)N(C)C(=O)[C@H](CC(C)C)NC(=O)C(C)(C)N(C)C1=O [Compound 1432] ([NMeL]I[NMeA][Aze][NMeAla(cPent)][Sar][Phe(3-I)][Nle][NMeAib]L[NMeD]-Piperidide; lactam N-11)	260 nM
CCCC[C@H]1C(=O)N[C@H](C)CC(=O)N(C)[C@@H](CC(C)C)C(=O)N[C@@H]([C@@H](C)CC)C(=O)N(C)CC(=O)N(C)CC(=O)N(C)[C@@H](CC2CCCCC2)C(=O)N(C)CC(=O)N[C@@H](CCc2ccc(C(F)(F)F)c(F)c2)C(=O)N2CCC[C@H]2C(=O)NC2(CCCC2)C(=O)N1C [Compound 1518] (cyclo([Ac5c][NMeNle][d(β3hA)][NMeL]I[Sar][Sar][NMeCha][Sar][hPhe(3-F,4-CF3)]P))	370 nM
CC[C@H](C)[C@@H]1NC(=O)[C@H](CC(C)C)N(C)C(=O)C[C@@H](C(=O)N(C)C)N(C)C(=O)[C@H]([C@@H](C)CC)N(C)C(=O)C2(CCCC2)NC(=O)[C@H](Cc2cccc(OC)c2)N(C)C(=O)[C@H](CCc2ccc(C(F)(F)F)c(Cl)c2)NC(=O)CN(C)C(=O)[C@H](Cc2ccc(C)cc2)N(C)C(=O)[C@@H]2CCN2C(=O)[C@H](C)N(C)C1=O [Compound 1991] ([NMeL]I[NMeA][Aze][NMePhe(4-Me)][Sar][hPhe(3-Cl-4-CF3)][NMePhe(3-OMe)][Ac5c][NMeI][NMeD]-NMe2; lactam N-11)	9.2 nM
CC[C@H](C)[C@@H]1NC(=O)[C@H](CC(C)C)N(C)C(=O)C[C@@H](C(=O)N2CCCCC2)N(C)C(=O)[C@H](C2CCCCC2)N(C)C(=O)C2(CCCC2)NC(=O)[C@H](Cc2ccc(C(F)(F)F)nc2)N(C)C(=O)[C@H](CCc2ccc(C(F)(F)F)c(Cl)c2)NC(=O)CN(C)C(=O)[C@H](CC2CCCCC2)N(C)C(=O)[C@@H]2CCN2C(=O)CN(C)C1=O [Compound 6] ([NMeL]I[Sar][Aze][NMeCha][Sar][hPhe(3-Cl-4-CF3)][X12][Ac5c][NMeChg][NMeD]-Piperidide; lactam N-11)	13 nM
CC[C@H](C)[C@@H]1NC(=O)[C@H](C)N(C)C(=O)[C@@H]2CCC[C@H]2NC(=O)[C@H](CC(C)C)N(C)C(=O)[C@H](Cc2ccccc2)N(C)C(=O)[C@@H]2CCCN2C(=O)[C@H](CCc2ccc(C(F)(F)F)cc2)NC(=O)CN(C)C(=O)[C@H](Cc2ccc(Cl)cc2)N(C)C(=O)CN(C)C(=O)CN(C)C1=O [Compound 25] (cyclo(I[Sar][Sar][NMePhe(4-Cl)][Sar][hPhe(4-CF3)]P[NMeF][NMeL][X26][NMeA]))	150 nM
CC[C@H](C)[C@@H]1NC(=O)[C@H](CC(C)C)N(C)C(=O)C[C@@H](C(=O)N2CCCCC2)N(C)C(=O)[C@H](C(C)C)N(C)C(=O)C2(CCCC2)NC(=O)[C@@H]2CCCN2C(=O)[C@H](CCc2ccc(Cl)cc2)NC(=O)CN(C)C(=O)[C@H](CC2CCCCC2)N(C)C(=O)CN(C)C(=O)[C@@H]2CCN2C1=O [Compound 112] ([NMeL]I[Aze][Sar][NMeCha][Sar][hPhe(4-Cl)]P[Ac5c][NMeV][NMeD]-Piperidide; lactam N-11)	73 nM
CC[C@H](C)[C@@H]1NC(=O)[C@H](CC(C)C)N(C)C(=O)C[C@@H](C(=O)N2CCCCC2)N(C)C(=O)[C@H]([C@@H](C)O)N(C)C(=O)C2(CCCC2)NC(=O)[C@@H]2CCCN2C(=O)[C@H](CCc2ccc(C(F)(F)F)c(Cl)c2)NC(=O)CN(C)C(=O)[C@H](CC2CCCCC2)N(C)C(=O)CN(C)C(=O)CN(C)C1=O [Compound 1041] ([NMeL]I[Sar][Sar][NMeCha][Sar][hPhe(3-Cl-4-CF3)]P[Ac5c][NMeT][NMeD]-Piperidide; lactam N-11)	1.6 nM
CC[C@H](C)[C@@H]1NC(=O)[C@H](CC(C)C)N(C)C(=O)C[C@@H](C)NC(=O)[C@H](C(C)C)N(C)C(=O)C2(CCCC2)NC(=O)[C@@H]2CCCN2C(=O)[C@H](CCc2ccc(C(F)(F)F)c(Cl)c2)NC(=O)CN(C)C(=O)[C@H](Cc2ccccc2Cl)N(C)C(=O)CN(C)C(=O)CN(C)C1=O [Compound 1591] (cyclo([Ac5c][NMeV][d(β3hA)][NMeL]I[Sar][Sar][NMePhe(2-Cl)][Sar][hPhe(3-Cl-4-CF3)]P))	97 nM
